According to PMC4891189 (Pharmaceutical research, 2015):
Entries after “also recorded” stand apart in the source; their conditions may differ. Blank lines part the entries; values can stand above or below the compound they belong to.

What was measured:
P-gp [1] = assay: Bidirectional transport across Caco-2 cell monolayers; settings: human
P-gp (MDR1) = assay: Bidirectional transport across MDCK-MDR1 cell monolayers; assay type: in vitro ADME, canine; settings: dog
[2] = system: MDCK-MDR1 cell monolayers; assay: as above; assay type: in vitro ADME, canine
[3] = PAMPA permeability at different pH
rat jejunum [4] = assay: Transport study in rat jejunum Ussing chamber; settings: after 90 min, leakage indicator
Caco-2 cell monolayers = assay: Bidirectional transport across Caco-2 cell monolayers; settings: 50 µM
beta-blocking activity = settings: animal studies ref 7; cited from earlier work
rat jejunum [5] = system: rat jejunum
[6] = cited from earlier work
human jejunum = settings: single-pass perfusion, healthy volunteers ref 9; cited from earlier work
P-gp [7] = settings: mdr1a (−/−) mice intestine ref 29; cited from earlier work
[8] = oral administration, after first-pass metabolism; cited from earlier work
hemodynamic effects = settings: healthy subjects ref 8; cited from earlier work
[9] = Caco-2, pH 7.4, with GG918 0.5 µM
[10] = MDCK-MDR1, pH 7.4, with GG918 0.5 µM
[11] = 50 µM, MDCK-MDR1, pH 7.4, GG918 0.5 µM

Papp A→B at 120 min, 0.01 µM (P-gp [1]; Caco-2, pH 7.4): 0.64 ± 0.03 ×10⁻⁶ cm/s | Papp B→A at 120 min, 0.01 µM (P-gp [1]; Caco-2, pH 7.4): 1.64 ± 0.13 ×10⁻⁶ cm/s | efflux ratio at 120 min, 0.01 µM (P-gp [1]; Caco-2, pH 7.4): 2.57 ± 0.33 | Papp A→B at 120 min, 0.01 µM (P-gp [1]; [9]): 1.17 ± 0.07 ×10⁻⁶ cm/s | Papp B→A at 120 min, 0.01 µM (P-gp [1]; [9]): 1.19 ± 0.05 ×10⁻⁶ cm/s | efflux ratio at 120 min, 0.01 µM (P-gp [1]; [9]): < 2 | Papp A→B at 120 min, 0.01 µM (P-gp (MDR1); MDCK-MDR1, pH 7.4): 0.26 ± 0.02 ×10⁻⁶ cm/s | Papp B→A at 120 min, 0.01 µM (P-gp (MDR1); MDCK-MDR1, pH 7.4): 2 ± 0.01 ×10⁻⁶ cm/s | Papp A→B at 120 min, 0.01 µM (P-gp (MDR1); [10]): 0.41 ± 0.1 ×10⁻⁶ cm/s | Papp B→A at 120 min, 0.01 µM (P-gp (MDR1); [10]): 0.67 ± 0.06 ×10⁻⁶ cm/s | efflux ratio at 120 min, 0.01 µM (P-gp (MDR1); MDCK-MDR1, pH 7.4, with GG918 0.5 µM, Efflux Ratio, Digoxin 0.01 µM, MDR1-MDCK cells, +GG918 0.5 µM): < 2 | Efflux Ratio ([2]; Digoxin 0.01 µM, MDR1-MDCK cells, +GG918 0.5 µM): 1.52±0.16
SMILES: C[C@H]1O[C@@H](O[C@H]2[C@@H](O)C[C@H](O[C@H]3[C@@H](O)C[C@H](O[C@H]4CC[C@@]5(C)[C@H](CC[C@@H]6[C@@H]5C[C@@H](O)[C@]5(C)[C@@H](C7=CC(=O)OC7)CC[C@]65O)C4)O[C@@H]3C)O[C@@H]2C)C[C@H](O)[C@@H]1O [Digoxin, digoxin]
effect of apical pH on permeability ([3]; 5 µM digoxin): no statistical differences; also recorded: did not show different permeability results

permeated from the mucosal to serosal side (rat jejunum [4]): less than 1%
SMILES: O=S1(=O)OC(c2ccc(O)cc2)(c2ccc(O)cc2)c2ccccc21 [phenol red]

SMILES: CC(C)NCC(O)COc1cccc2ccccc12 (centres unmarked) [S-propranolol]
change of Papp, A->B as apical pH changed from 7.4 to 6.5 (Caco-2 cell monolayers; Caco-2): markedly decreased | change of Papp, B->A as apical pH changed from 7.4 to 6.5 (Caco-2 cell monolayers; Caco-2): significantly increased | Papp, A->B in the presence of GG918 (Caco-2 cell monolayers; Caco-2, apical pH 6.5): small but significant increase | basolateral to apical efflux in the presence or absence of GG918 (Caco-2 cell monolayers; Caco-2, apical pH 6.5): no significant differences | beta-blocking activity, times more potent than R-propranolol (beta-blocking activity): 100 times | effect of verapamil on Papp in the absorptive direction (rat jejunum [5]; not told): did not alter | change of Papp mucosal to serosal (absorption) with mucosal pH (rat jejunum [5]; pH 6.5): statistically significant decrease | effect of mucosal pH on serosal to mucosal permeability (secretion) (rat jejunum [5]; pH 6.5): didn’t significantly affect | effect of GG918 on basolateral and apical permeabilities ([2]; 25 nM, MDCK-MDR1, pH 7.4 on both sides): no effect of GG918 was observed | Papp, A->B in the presence of GG918 ([2]; 50 µM, MDCK-MDR1, apical pH 6.5): decreased significantly | Papp, A→B in the absence or presence of GG918 [2, 11]: unexplained significant difference | basolateral to apical efflux in the absence or presence of GG918 [2, 11]: no significant differences | mass retention ([3]; 25 nM): 58±4% | mass retention ([3]; 50 µM): 12%±1 | permeability compared with high permeability standard labetalol ([3]; 50 µM each, pH 7.4 both sides): higher permeability than 50 µM labetalol | simulated efflux ratio (Papp, B->A/ Papp, A->B) ([3]; 50 µM, apical pH 6.5, basolateral pH 7.4): 3.39 | simulated efflux ratio (Papp, B->A/ Papp, A->B) ([3]; 50 µM, apical pH 7.4, basolateral pH 7.4): 1 | Papp, A->B ([3]; 50 µM, pH 6.5→pH 7.4): 8.1±0.3 × 10^−6 cm/sec | simulated Papp, B->A ([3]; 50 µM, pH 7.4→pH 6.5): 27.3±0.4 × 10^−6 cm/sec | Papp ([3]; 50 µM, pH 7.4→pH 7.4): 19.2±2.6 × 10^−6 cm/sec | mass retention ([3]; 100 µM): 8%±1 | pH dependent transcellular permeability at 100 µM compared with 50 µM ([3]; 100 µM): almost identical to that observed at 50 µM

SMILES: CC(C)NCC(O)COc1cccc2ccccc12.Cl (centres unmarked) [propranolol HCl]
dose number [6]: 0.006

SMILES: CC(C)NCC(O)COc1cccc2ccccc12 (centres unmarked) [propranolol]
effective permeability (human jejunum): 280 ×10⁻⁶ cm/s | permeability, P-gp expressed vs knocked out (P-gp [7]): not influenced | dose reaching the systemic circulation unchanged [8]: 25%

SMILES: CC(C)NC[C@@H](O)COc1cccc2ccccc12 [R-propranolol]
hemodynamic effects (hemodynamic effects): ineffective
